For experiment [1], the target named is T1, human PASK (Homo sapiens, UniProt Q96RG2).
T1 construct: purchased ThermoFisher Scientific PR7013A
The experiment in a line: 33P radioactive kinase assay. The class given is biochemical. The note with it: 33P radioactive PASK kinase assay, 10 μM ATP, ZIPtide 1 μM. The method, then: The principle of the ^33P radioactive kinase assay consists in measuring the incorporated ^33P into the ZIPtide peptide substrate when phosphorylated by human PASK using [^33P]-[…]-ATP and ATP, which correlates with kinase activity.
The test compounds are prepared as a serial dilution of 10 point dose responses with 1/5 dilution steps in 100% DMSO starting from 0.2 or 2 mM highest concentration, diluted 1/20 in water and 5 μL is transferred to the assay plates (Greiner, Cat #651201).
(§1) 1% DMSO and 10 μM staurosporine final concentrations are used respectively as negative and positive controls.
11 μL of enzyme-substrate mixture is added on the assay plates. The reactions are started by adding 9 μL ATP mixture, consisting of non-labeled and ^33P-labeled ATP, on the assay plates.
The reactions are stopped by adding 25 μL phosphoric acid (150 mM) to the reactions.
The completely terminated kinase reactions are transferred using a harvester on pre-wetted UniFilter-96 plates (UniFilter-96 GF/B, PerkinElmer Inc., Cat #6005177).
After harvesting the kinase reactions, the filter plates are washed 6 times with phosphoric acid (75 mM). The back of the UniFilter-96 plates are sealed and 40 μL MicroScint-20 (PerkinElmer Inc., Cat #6013621) is added to each well. The top of each plate is sealed with TopSeal-A (PerkinElmer Inc., Cat #6050185). Read-out is performed with a TopCount instrument (PerkinElmer Inc.).
Raw data are generated following the read-out performed on the TopCount, used to calculate percentage inhibition (PIN) values and plotted to generate dose response curves and derive the average half maximal inhibitory concentrations (IC50) reported in Table VI.

The target in experiment [2] is T1, human PASK. Put plainly: ADP-Glo kinase assay. The class given is biochemical. The note with it: ADPGlo PASK kinase assay, 25 μM ATP, ZIPtide 25 μM. The procedure:
The ADP-Glo™ kinase assay is a luminescent technology assay which measures the ADP formed from a kinase reaction. In this specific study, the kinase reactions consisted of the phosphorylation of the ZIPtide peptide substrate by human recombinant PASK. In a second step the kinase reaction is terminated and all the remaining ATP is depleted. In a final step the ADP is converted into ATP and this newly synthesized ATP is measured by using a luciferase/luciferin reaction. The generated light is measured using an Envision plate reader, wherein the luminescent signal obtained positively correlates with the kinase activity.
The test compounds are prepared as a serial dilution of 10 point dose responses with 1/5 dilution steps in 100% DMSO starting from 2 mM highest concentration, diluted 1/20 in water and 1 μL is transferred to the assay plates (PerkinElmer Inc., Cat #6007290).
as §1
2 μL enzyme-substrate mixture is added to the assay plates.
The reaction is started by adding 2 μL diluted ATP on the assay plates immediately after addition of the enzyme-substrate mixture to the compound. Plates are centrifuged for a few seconds at 1000 rpm and gently shaken for 2 min followed by an incubation at RT for 120 min.
The reactions are stopped and the unconsumed ATP is depleted by adding 5 μL ADP-Glo Reagent (Promega, Cat #V912B) to the reaction. The plates are centrifuged for a few seconds at 1000 rpm and incubated at RT for 40 min (ATP depletion).
The ADP is converted to ATP and luciferase and luciferin is introduced to detect ATP by adding 10 μL Kinase Detection Reagent (Promega, Cat #V913B+V914B) to the reaction. The plates are centrifuged for a few seconds at 1000 rpm and incubated at RT for 30 min (ADP detection).
Luminescence is measured on an Envision plate reader (PerkinElmer Inc.).
Raw data are generated following the read-out performed on the Envision plate reader, used to calculate percentage inhibition (PIN) values and plotted to generate dose response curves and derive the average half maximal inhibitory concentrations (IC50) reported in Table VIII.
For orientation: In ADP-Glo the light output rises with the ADP produced.

T1 sequence (Q96RG2 whole entry): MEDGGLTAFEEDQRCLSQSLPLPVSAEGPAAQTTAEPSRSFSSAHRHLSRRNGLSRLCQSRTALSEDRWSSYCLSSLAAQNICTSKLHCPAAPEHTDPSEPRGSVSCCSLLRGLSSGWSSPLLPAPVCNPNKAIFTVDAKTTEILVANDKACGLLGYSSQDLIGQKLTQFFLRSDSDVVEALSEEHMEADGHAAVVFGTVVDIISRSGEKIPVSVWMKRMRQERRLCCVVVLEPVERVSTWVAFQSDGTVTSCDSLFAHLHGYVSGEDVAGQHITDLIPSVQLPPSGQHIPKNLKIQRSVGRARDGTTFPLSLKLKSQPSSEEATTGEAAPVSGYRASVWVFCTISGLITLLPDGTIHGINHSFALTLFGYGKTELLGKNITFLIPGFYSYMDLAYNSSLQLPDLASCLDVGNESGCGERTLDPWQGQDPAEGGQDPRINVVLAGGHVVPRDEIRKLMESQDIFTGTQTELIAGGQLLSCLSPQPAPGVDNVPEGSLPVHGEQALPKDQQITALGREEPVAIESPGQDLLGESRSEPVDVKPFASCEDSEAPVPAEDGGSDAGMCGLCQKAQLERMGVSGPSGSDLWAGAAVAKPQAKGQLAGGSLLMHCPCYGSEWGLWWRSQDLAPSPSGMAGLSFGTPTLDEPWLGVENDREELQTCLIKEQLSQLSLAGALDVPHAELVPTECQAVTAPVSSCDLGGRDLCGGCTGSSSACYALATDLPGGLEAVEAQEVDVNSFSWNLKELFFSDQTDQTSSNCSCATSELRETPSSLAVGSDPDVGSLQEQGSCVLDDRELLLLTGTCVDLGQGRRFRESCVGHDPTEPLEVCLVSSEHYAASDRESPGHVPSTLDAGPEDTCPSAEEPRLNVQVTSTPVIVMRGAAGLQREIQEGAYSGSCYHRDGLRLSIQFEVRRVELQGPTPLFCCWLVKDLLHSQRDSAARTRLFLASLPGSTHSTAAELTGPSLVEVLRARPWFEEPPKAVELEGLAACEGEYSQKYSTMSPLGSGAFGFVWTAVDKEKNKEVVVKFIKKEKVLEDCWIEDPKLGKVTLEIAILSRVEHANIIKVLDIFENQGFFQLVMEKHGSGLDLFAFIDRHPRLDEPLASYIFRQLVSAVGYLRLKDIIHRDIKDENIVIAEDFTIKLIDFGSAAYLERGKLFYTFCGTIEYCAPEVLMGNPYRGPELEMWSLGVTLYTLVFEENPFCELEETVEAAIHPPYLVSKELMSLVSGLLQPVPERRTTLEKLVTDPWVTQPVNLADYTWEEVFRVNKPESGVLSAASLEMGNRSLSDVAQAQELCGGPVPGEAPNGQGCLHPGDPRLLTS

With `CCOC(=O)c1coc(-c2ccn3ncc(-c4c(C)nn(C)c4C)c3c2)c1` [Cpd 6, ethyl 5-[3-(1,3,5-trimethylpyrazol-4-yl)pyrazolo[1,5-a]pyridin-5-yl]furan-3-carboxylate], the half-maximal inhibitory concentration (IC50) (commonly the concentration that gives 50% inhibition) at human PASK [1] lay in the range of 10 to 100 nM. For `Cc1noc(C)c1-c1cnn2ccc(-c3ccc(C(=O)O)o3)cc12` [Cpd 31, 5-[3-(3,5-dimethylisoxazol-4-yl)pyrazolo[1,5-a]pyridin-5-yl]furan-2-carboxylic acid], the 50% inhibitory concentration (IC50) on human PASK [1] lay in the range of 10 to 100 nM. Consider `Cc1nn(C)c(C)c1-c1cnn2ccc(-c3cc(C(=O)NS(C)(=O)=O)co3)cc12` [Cpd 21, N-methylsulfonyl-5-[3-(1,3,5-trimethylpyrazol-4-yl)pyrazolo[1,5-a]pyridin-5-yl]furan-3-carboxamide], for which the half-inhibitory concentration (IC50) at human PASK [1] was 10 to 100 nM. Still for that read-out and setting: the value for `Cc1c(-c2cnn3ccc(-c4nc(C(=O)O)co4)cc23)cnn1C` [Cpd 33, 2-[3-(1,5-dimethylpyrazol-4-yl)pyrazolo[1,5-a]pyridin-5-yl]oxazole-4-carboxylic acid] was 10 to 100 nM; that for `Cn1cc(-c2cnn3ccc(-c4cc(C(=O)O)c(C(=O)Nc5ccccc5)o4)cc23)cn1` [Cpd 1, 5-[3-(1-methylpyrazol-4-yl)pyrazolo[1,5-a]pyridin-5-yl]-2-(phenylcarbamoyl) furan-3-carboxylic acid] was 0.01 to 10 nM; that for `Cc1noc(C)c1-c1cnn2ccc(-c3cc(C(=O)O)c(C)o3)cc12` [Cpd 19, 5-[3-(3,5-dimethylisoxazol-4-yl)pyrazolo[1,5-a]pyridin-5-yl]-2-methyl-furan-3-carboxylic acid] was 0.01 to 10 nM. Consider `CCn1nc(C)c(-c2cnn3ccc(-c4ncc(C(=O)O)s4)cc23)c1C` [Cpd 29, 2-[3-(1-ethyl-3,5-dimethyl-pyrazol-4-yl)pyrazolo[1,5-a]pyridin-5-yl]thiazole-5-carboxylic acid], for which the IC50 at human PASK [1] and against human PASK [2] was 0.01 to 10 nM in each case.

Turning to `Cc1nn(C)c(C)c1-c1cnn2ccc(-c3cc(C(=O)O)c(CC(C)C)o3)cc12` [Cpd 27, 2-isobutyl-5-[3-(1,3,5-trimethylpyrazol-4-yl)pyrazolo[1,5-a]pyridin-5-yl]furan-3-carboxylic acid], on human PASK [1], the half-inhibitory concentration (IC50) fell in the range of 0.01 to 10 nM. For `Cc1noc(C)c1-c1cnn2ccc(-c3nc(C(=O)O)c(C)o3)cc12` [Cpd 34, 2-[3-(3,5-dimethylisoxazol-4-yl)pyrazolo[1,5-a]pyridin-5-yl]-5-methyl-oxazole-4-carboxylic acid], the concentration for half-maximal inhibition (IC50) on human PASK [1] and at human PASK [2] was 10 to 100 nM throughout. As to `Cc1noc(C)c1-c1cnn2ccc(-c3nc(C(F)F)c(C(=O)O)s3)cc12` [Cpd 45, 4-(difluoromethyl)-2-[3-(3,5-dimethylisoxazol-4-yl)pyrazolo[1,5-a]pyridin-5-yl]thiazole-5-carboxylic acid], the IC50 on human PASK [1] was 10 to 100 nM. For `Cc1nn(C(C)C)c(C)c1-c1cnn2ccc(-c3ncc(C(=O)O)s3)cc12` [Cpd 30, 2-[3-(1-isopropyl-3,5-dimethyl-pyrazol-4-yl)pyrazolo[1,5-a]pyridin-5-yl]thiazole-5-carboxylic acid], the IC50 on human PASK [1] and against human PASK [2] was 0.01 to 10 nM in each case. For the molecule `COc1nc(-c2ccn3ncc(-c4c(C)nn(C)c4C)c3c2)sc1C(N)=O` [Cpd 11, 4-methoxy-2-[3-(1,3,5-trimethylpyrazol-4-yl)pyrazolo[1,5-a]pyridin-5-yl]thiazole-5-carboxamide], the IC50 on human PASK [1] fell in the range of 0.01 to 10 nM. As for `Cc1noc(C)c1-c1cnn2ccc(-c3cc(C(=O)O)c(C4=CCOCC4)o3)cc12` [Cpd 41, 2-(3,6-dihydro-2H-pyran-4-yl)-5-[3-(3,5-dimethyl-isoxazol-4-yl)pyrazolo[1,5-a]pyridin-5-yl]furan-3-carboxylic acid], the half-inhibitory concentration (IC50) at human PASK [1] was 0.01 to 10 nM. Regarding `Cc1nn(C)c(C)c1-c1cnn2ccc(-c3cc(C(=O)O)c(C)o3)cc12` [Cpd 16, 2-methyl-5-[3-(1,3,5-trimethylpyrazol-4-yl)pyrazolo[1,5-a]pyridin-5-yl]furan-3-carboxylic acid], the half-inhibitory concentration (IC50) on human PASK [1] was in the range of 0.01 to 10 nM. Consider `Cc1nn(C(C)C)c(C)c1-c1cnn2ccc(-c3nc(C(F)F)c(C(=O)O)s3)cc12` [Cpd 46, 4-(difluoromethyl)-2-[3-(1-isopropyl-3,5-dimethyl-pyrazol-4-yl)pyrazolo[1,5-a]pyridin-5-yl]thiazole-5-carboxylic acid], for which the concentration for half-maximal inhibition (IC50) at human PASK [1] is 0.01 to 10 nM. Regarding `Cc1nn(C)c(C)c1-c1cnn2ccc(-c3cc(C(=O)NS(=O)(=O)C4CC4)co3)cc12` [Cpd 22, N-cyclopropylsulfonyl-5-[3-(1,3,5-trimethylpyrazol-4-yl)pyrazolo[1,5-a]pyridin-5-yl]furan-3-carboxamide], the IC50 on human PASK [1] was in the range of 10 to 100 nM. Consider `Cc1nn(C)c(C)c1-c1cnn2ccc(-c3cc(C(=O)OCC(=O)N(C)C)co3)cc12` [Cpd 7, [2-(dimethylamino)-2-oxo-ethyl] 5-[3-(1,3,5-trimethylpyrazol-4-yl)pyrazolo[1,5-a]pyridin-5-yl]furan-3-carboxylate], for which the 50% inhibitory concentration (IC50) on human PASK [1] lay in the range of 10 to 100 nM.

As to `CCc1oc(-c2ccn3ncc(-c4c(C)nn(C)c4C)c3c2)cc1C(=O)O` [Cpd 26, 2-ethyl-5-[3-(1,3,5-trimethylpyrazol-4-yl)pyrazolo[1,5-a]pyridin-5-yl]furan-3-carboxylic acid], the concentration for half-maximal inhibition (IC50) on human PASK [1] was in the range of 0.01 to 10 nM. Same read-out and setting: for `Cc1noc(C)c1-c1cnn2ccc(-c3ncc(C(=O)O)s3)cc12` [Cpd 25, 2-[3-(3,5-dimethylisoxazol-4-yl)pyrazolo[1,5-a]pyridin-5-yl]thiazole-5-carboxylic acid] the value was 0.01 to 10 nM.

Consider `Cc1nn(C)c(C)c1-c1cnn2ccc(-c3cc(C(=O)O)c(C4CC4)o3)cc12` [Cpd 15, 2-cyclopropyl-5-[3-(1,3,5-trimethylpyrazol-4-yl)pyrazolo[1,5-a]pyridin-5-yl]furan-3-carboxylic acid], for which the IC50 at human PASK [1] and on human PASK [2] was 0.01 to 10 nM in each case.

For `Cc1noc(C)c1-c1cnn2ccc(-c3nc(C(=O)O)co3)cc12` [Cpd 20, 2-[3-(3,5-dimethylisoxazol-4-yl)pyrazolo[1,5-a]pyridin-5-yl]oxazole-4-carboxylic acid], the IC50 at human PASK [1] was in the range of 10 to 100 nM; against human PASK [2], 100 to 500 nM. For the molecule `Cc1noc(C)c1-c1cnn2ccc(-c3ncc(C(=O)O)o3)cc12` [Cpd 24, 2-[3-(3,5-dimethylisoxazol-4-yl)pyrazolo[1,5-a]pyridin-5-yl]oxazole-5-carboxylic acid], the IC50 on human PASK [1] is 0.01 to 10 nM. As to `Cc1nn(C)cc1-c1cnn2ccc(-c3cc(C(=O)O)co3)cc12` [Cpd 14, 5-[3-(1,3-dimethylpyrazol-4-yl)pyrazolo[1,5-a]pyridin-5-yl]furan-3-carboxylic acid], the IC50 at human PASK [1] and on human PASK [2] was 0.01 to 10 nM throughout.

Take `Cc1noc(C)c1-c1cnn2ccc(-c3nc(C4CC4)c(C(=O)O)s3)cc12` [Cpd 37, 4-cyclopropyl-2-[3-(3,5-dimethylisoxazol-4-yl)pyrazolo[1,5-a]pyridin-5-yl]thiazole-5-carboxylic acid]: the concentration for half-maximal inhibition (IC50) on human PASK [1] and against human PASK [2] was 0.01 to 10 nM throughout. Consider `Cc1noc(C)c1-c1cnn2ccc(-c3cc(C(=O)O)co3)cc12` [Cpd 4, 5-[3-(3,5-dimethylisoxazol-4-yl)pyrazolo[1,5-a]pyridin-5-yl]furan-3-carboxylic acid], for which the 50% inhibitory concentration (IC50) at human PASK [1] and at human PASK [2] was 0.01 to 10 nM in each case. On to `COC(=O)c1coc(-c2ccn3ncc(-c4c(C)nn(C)c4C)c3c2)c1` [Cpd 5, methyl 5-[3-(1,3,5-trimethylpyrazol-4-yl)pyrazolo[1,5-a]pyridin-5-yl]furan-3-carboxylate], for which the IC50 at human PASK [1] was in the range of 10 to 100 nM. Same read-out and setting: the value for `Cn1cc(-c2cnn3ccc(-c4cc(C(=O)O)co4)cc23)cn1` [Cpd 3, 5-[3-(1-methylpyrazol-4-yl)pyrazolo[1,5-a]pyridin-5-yl]furan-3-carboxylic acid] was 10 to 100 nM.

For the origin of these results see patent US20220144823A1, “PYRAZOLOPYRIDINE DERIVATIVES AS INHIBITORS OF PASK” (Galapagos NV, priority 2019, published 2022).
